Measured values taken from patent US20230105108A1, “COMPOUNDS FOR THE TREATMENT OF BACTERIAL INFECTIONS AND POTENTIATION OF ANTIBIOTICS” (GEORGIA STATE UNIVERSITY RESEARCH FOUNDATION, INC., priority 2019, published 2023).
Structures can show the parent of a compound that is named as a salt. Where two headings read alike, the source gives them in different places.

What was measured:
[1] = Cytotoxicity in H9c2 cells (CCK-8); type: cell-based; conditions: rat, H9c2 cells; for CC50 at 24 h: H9c2 cell line
Protocol: The cytotoxicity in H9c2 (ATCC®CRL-1446™) cells was also determined. The H9c2 cells were maintained in DMEM (Dulbecco's Modified Eagle's Medium) supplemented with 10% fetal bovine serum (MidSci; S01520HI) and 1% penicillin-streptomycin (Sigma-Aldrich; P4333) at 37° C. with 5% CO2. The H9c2 cells were seeded in 96-well plate one day before the experiment. Different concentrations of di-amidine compounds were added into the H9c2 cells. The cells were then incubated with the compounds for 24 hours at 37° C. with 5% CO2. The cell viability was tested by the CCK-8. Specifically, after 24 hour incubation, 10 μL CCK-8 was added to each well. After 3 hours incubation at 37° C., the absorbance at 450 nm was recorded by a plate reader.

[2] = tested on: E. coli; assay: Sensitization of E. coli (sensitization fold), Example 2; type: cell-based
Protocol: The sensitization fold of select compounds of the present invention was determined. E. coli bacteria were cultured in nutrient broth at 37° C. overnight prior to treatment. […] Bacterial density was measured based on OD600.

[3] = tested on: E. coli (ATCC 25922); assay: MIC determination, sensitization fold and FIC index on E. coli; type: cell-based; conditions: for MIC: Escherichia coli, ATCC25922, 24 h; for sensitization activity: compound at up to 10 μM; for Sensitization: compound up to 25 μM
Protocol: (§1) Bacteria culture and MICs determination: Gram-negative bacteria were cultured in Mueller Hinton II cation-adjusted broth. Gram-positive bacteria were cultured in LB broth. Mycobacterium smegmatis was cultured in Middlebrook 7H9 Broth. MICs of antibiotics itself were determined by performing two-fold serial dilutions of antibiotics. MICs of antibiotics in the presence of bacterial sensitizers were determined by performing two-fold serial dilutions of antibiotics with or without a constant concentration of bacterial sensitizers. The MICs tests were performed on 96-well plates with a final volume of 200 μl Mueller Hinton II cation-adjusted broth in each well. Each well was inoculated with 5×10^5 CFU/ml bacteria and was incubated for 24 h at 37° C. with continuous shaking of 200 rpm. The bacterial density was then determined by OD600. Bacterial growth %=OD600 of antibiotic treatment group/OD600 of antibiotic non-treatment group. MICs was determined as the concentrations that inhibit more than 90% of bacteria growth.
(§2) Sensitization fold determination and FIC index calculations: Sensitization fold=MIC of antibiotic only/MIC of antibiotic with bacterial sensitizer. […] Since the MICs were determined by performing two-fold serial dilutions of antibiotic, so the sensitization fold can is the times of 2.
FIC index between compound a and b was calculated according to the formula below: […]
FIC≤0.5: Synergy; FIC between 0.5 and 1: Additive; FIC between 1 and […]: no interaction; FIC >4: antagonism.
(§3) Bacteria strains (as indicated in Table 5B) were cultured with rifampicin at various concentrations in the presence or absence of 10 μM of the indicated compound for 20 h at 37° C. The MIC, sensitization, cytotoxicity, and MIC on mycobacteria were tested according to methods described herein. […] The sensitization activities of compounds on MRSA were tested using rifampicin. The sensitization activities of compounds on E. coli were tested using rifampicin.

[4] = Cytotoxicity on mammalian cells (CCK-8), HEK293; type: cell-based; conditions: human, HEK293 cells; HEK293 cell line; 24 h
Protocol: (§4) Cytotoxicity test of bacterial sensitizers on mammalian cells. Cell viability was assessed by using Cell Counting Kit-8 (CCK-8, Dojindo, Japan). HEK293 or NIH3T3 cells were seeded in a 96-well plate one day before the experiment to reach 80% confluency. Cells were then incubated with various concentration of bacterial sensitizers at 37° C. with 5% CO2 for 24 h, then 10 μL of CCK-8 solution was added to each well, and the plate was incubated for an additional at 37° C. 2 h with 5% CO2. The optical density at 450 nm was recorded by plate reader; and the results were calculated as a percentage of viability compared with the untreated control.

[5] = tested on: MRSA (ATCC 33592); assay: MIC determination and sensitization fold on MRSA; type: cell-based, methicillin-resistant Staphylococcus aureus; conditions: for MIC: Staphylococcus aureus, 24 h; for Sensitization fold: rifampicin
Protocol: Bacteria strains: E. coli (ATCC 25922), A. baumannii (ATCC 17978), K. pneumoniae (43816), S. maltophilia (ATCC 31559), S. typhimurium (ATCC 14028), C. werkmanii (ATCC 51114), S. aureus (ATCC 12600) and methicillin-resistant Staphylococcus aureus (MRSA, ATCC 33592) strains were purchased from ATCC. NR698 was provided.
as §1, §2, §3

[6] = Cytotoxicity on mammalian cells (CCK-8), NIH3T3; type: cell-based; conditions: mouse, NIH3T3 cells, 3T3 cell line
Protocol: as §4

[7] = tested on: B. subtilis; assay: MIC determination and sensitization fold on B. subtilis; type: cell-based; conditions: B. subtilis; for Sensitization fold / Sensitization: erythromycin; for MIC: Bacillus subtilis, 24 h, compound alone, read-out: MIC; for Sensitization: compound up to 12 μM
[8] = tested on: HEK293 cells; assay: Cytotoxicity on mammalian cells (CCK-8), HEK293; type: cell-based; conditions: Homo sapiens
Protocol: as §4

[9] = 10 μM compound, rifampicin as the antibiotic (Table 6)
[10] = E. coli, rifampicin, compound at 25 μM
[11] = E. coli, compound alone, read-out: MIC
[12] = MRSA, compound alone, read-out: MIC

## N=C(N)Nc1ccc(-c2ccc(-c3ccc(NC(=N)N)cc3)cc2)cc1 [Compound A]
[1]; H9c2 cells (ATCC CRL-1446)
  IC50 at 24 h: 50 µM
[2]; compound at 25 μM
  Sensitization ability: fold sensitization of E. coli towards rifampicin: At 25 μM, sensitize E. coli towards rifampicin for 256-fold;

## N=C(N)Nc1ccc(-c2ccc(-c3nc4ccc(NC(=N)N)cc4[nH]3)o2)cc1 [Compound B]
[1]; H9c2 cells (ATCC CRL-1446)
  IC50 at 24 h: 100 µM
[2]; compound at 25 μM
  Sensitization ability: fold sensitization of E. coli towards rifampicin: At 25 μM, sensitize E. coli towards rifampicin for 16-fold;

## N=C(N)Nc1ccc(-c2ccc(-c3ccc(NC(=N)N)cc3Cl)o2)c(Cl)c1 [Compound C]
[1]; H9c2 cells (ATCC CRL-1446)
  IC50 at 24 h: 50 µM
[2]; compound at 4 μM
  Sensitization ability: fold sensitization of E. coli towards rifampicin: At 4 μM, sensitize E. coli towards rifampicin for 516-fold;

## N=C(N)c1ccc(-c2ccc(-c3ccc(-c4ccc(C(=N)N)o4)o3)o2)cc1 [Compound M]
[1]; H9c2 cells (ATCC CRL-1446)
  IC50 at 24 h: 100 µM
[2]; compound at 15 μM
  Sensitization ability: fold sensitization of E. coli towards rifampicin: 32 fold
[2]; compound at 25 μM
  Sensitization ability: fold sensitization of E. coli towards rifampicin: 516 fold

## N=C(N)c1ccc(-c2ccc(-c3ccc(-c4ccc(C(=N)N)o4)o3)o2)o1 [Compound N]
[1]; H9c2 cells (ATCC CRL-1446)
  IC50 at 24 h: 100 µM
[2]; compound at 25 μM
  Sensitization ability: fold sensitization of E. coli towards rifampicin: At 25 μM, sensitize E. coli towards rifampicin for 64-fold.

## N=C(N)Nc1ccc(-c2ccc(-c3ccc(-c4ccc(NC(=N)N)cc4)o3)o2)cc1 [Compound O]
[1]; H9c2 cells (ATCC CRL-1446)
  IC50 at 24 h: > 100 µM
[2]; compound at 10 μM
  Sensitization ability: fold sensitization of E. coli towards rifampicin: At 10 μM, sensitize E. coli towards rifampicin for 256-fold.

## N=C(N)c1ccc(-c2ccc(-c3ccc(-c4ccc(C(=N)N)o4)s3)s2)o1 [Compound P]
[1]; H9c2 cells (ATCC CRL-1446)
  IC50 at 24 h: 50 µM
[2]; compound at 25 μM
  Sensitization ability: fold sensitization of E. coli towards rifampicin: At 25 μM, sensitize E. coli towards rifampicin for 32-fold;

## N=C(N)c1ccc(-c2ccc(-c3ccc(-c4ccc(C(=N)N)s4)o3)o2)s1 [Compound Q]
[1]; H9c2 cells (ATCC CRL-1446)
  IC50 at 24 h: 50 µM
[2]; compound at 25 μM
  Sensitization ability: fold sensitization of E. coli towards rifampicin: At 25 μM, sensitize E. coli towards rifampicin for 32-fold;

## N=C(N)c1ccc(-c2ccc(-c3ccc(C(=N)N)cc3)[se]2)cc1 [Compound R]
[1]
  IC50 at 24 h: > 100 µM
[2]; compound at 25 μM
  Sensitization ability: fold sensitization of E. coli towards rifampicin: At 25 μM, sensitize E. coli towards rifampicin for 32-fold;

## N=C(N)c1ccc(-c2ccc(-c3ccc(-c4ccc(C(=N)N)cc4)o3)o2)cc1 [Compound T]
[1]; H9c2 cells (ATCC CRL-1446)
  IC50 at 24 h: > 100 µM
[2]; compound at 25 μM
  Sensitization ability: fold sensitization of E. coli towards rifampicin: At 25 μM, sensitize E. coli towards rifampicin for 32-fold;

## Cc1cc(COc2ccc(CN)cc2)cc(COc2ccc(CN)cc2)c1 [MD-106, ((((S-methyl-1,3-phenylene)bis(methylene))bis(oxy))bis(4,1-phenylene))dimethanamine dihydrochloride]
[3]; [9]
  Sensitization fold: 1 fold
[3]; [10]
  Sensitization fold: 4-fold at 25 μM
[3]; [11]
  MIC: 100 µM
[3]; rifampicin
  sensitization activity: no sensitization activity
[1]
  CC50 at 24 h: 12.5 µM
[4]
  CC50 at 24 h: 25 µM
[5]; [12]
  MIC: > 50 µM
[6]
  CC50 at 24 h: 25 µM
[7]; compound at 4 μM
  Sensitization fold: 4-fold at 4 μM
[7]; compound at 12 μM
  Sensitization fold: 16-fold at 12 μM
[7]
  MIC: > 50 µM

## CC(C)NC(=N)c1ccc(OCc2cccc(COc3ccc(C(=N)NC(C)C)cc3)c2F)cc1 [MD-110, 1,3-Bis{(4-isopropylamidino)-phenoxymethyl}-2-fluorobenzene dihydrochloride]
[3]; E. coli, rifampicin
  Sensitization: No effect up to 25 μM.
[3]; [11]
  MIC: 25 µM
[4]
  CC50 at 24 h: > 100 µM
[5]; MRSA, compound at 4 μM
  Sensitization fold: 16-fold at 4 μM.
[6]
  CC50 at 24 h: > 100 µM
[7]; compound at 6 μM
  Sensitization fold: No effect at 6 μM.
[7]
  MIC: 25 µM

## CC(C)NC(=N)c1ccc(OCc2cccc(COc3ccc(C(=N)NC(C)C)cc3F)c2F)c(F)c1 [MD-111, 1,3-Bis {(4-isopropylamidino-2-fluoro)-phenoxymethyl}-2-fluorobenzene dihydrochloride]
[3]; E. coli, rifampicin
  Sensitization: No effect up to 25 μM.
[3]; [11]
  MIC: 50 µM
[4]
  CC50 at 24 h: > 100 µM
[5]; MRSA, compound at 6 μM
  Sensitization fold: 8 -fold at 6 μM.
[5]; MRSA, compound at 12 μM
  Sensitization fold: 16-fold at 12 μM,
[5]; [12]
  MIC: 50 µM
[6]
  CC50 at 24 h: > 100 µM
[7]
  Sensitization: No effect up to 12 μM.
  MIC: 25 µM

## Cc1cc(COc2ccc(C3=NCCCN3)cc2)cc(COc2ccc(C3=NCCCN3)cc2)c1 [MD-113, 2,2′-((((5-methyl-1,3-phenylene)bis(methylene))bis(oxy))bis(4,1-phenylene))bis(1,4,5,6-tetrahydropyrimidine) dihydrochloride]
[3]; E. coli, rifampicin
  Sensitization: No effect up to 25 μM.
[3]
  MIC: > 100 µM
[3]; rifampicin
  sensitization activity: no sensitization activity
[4]
  CC50 at 24 h: > 100 µM
[5]; MRSA, compound at 12 μM
  Sensitization fold: 4-fold at 12 μM.
[5]; MRSA, compound at 25 μM
  Sensitization fold: 8-fold at 25 μM,
[5]
  MIC: > 50 µM
[6]
  CC50 at 24 h: > 100 µM
[7]
  Sensitization: No effect up to 12 μM.
  MIC: 50 µM

## CC(C)(C)c1cc(COc2ccc(C(=N)N)cc2F)cc(COc2ccc(C(=N)N)cc2F)c1 [MD-115, 4,4′-(((5-(tert-butyl)-1,3-phenylene)bis(methylene))bis(oxy))bis(3-fluorobenzimidamide) dihydrochloride]
[3]; [9]
  Sensitization fold: 256 fold
[3]; E. coli, rifampicin, compound at 10 μM
  Sensitization fold: 256-fold at 10 μM
[1]
  CC50 at 24 h: 25 µM
[8]; HEK293
  IC50: 25 to 50 µM
[4]
  CC50 at 24 h: 25 to 50 µM
[5]
  MIC: 25 µM
[6]
  CC50 at 24 h: 25 to 50 µM
[7]; compound at 6 μM
  Sensitization fold: 8-fold at 6 μM

## Cc1cc(COc2cccc(C(=N)N)c2)cc(COc2cccc(C(=N)N)c2)c1 [MD-116, 3,3′-(((5-methyl-1,3-phenylene)bis(methylene))bis(oxy))dibenzimidamide dihydrochloride]
[3]; [10]
  Sensitization fold: 8-fold at 25 μM
[3]
  MIC: 100 µM
[4]
  CC50 at 24 h: > 100 µM
[5]; MRSA, compound at 12.5 μM
  Sensitization fold: 4-fold at 12.5 μM.
[6]
  CC50 at 24 h: > 100 µM
[7]; compound at 12 μM
  Sensitization fold: 32-fold at 12 μM

## Cc1cc(CSc2ccc(C(=N)N)cc2)cc(CSc2ccc(C(=N)N)cc2)c1 [MD-117, 4,4′-(((5-methyl-1,3-phenylene)bis(methylene))bis(sulfanediyl)) dibenzimidamide dihydrochloride]
[3]; [9]
  Sensitization fold: 32 fold
[3]; E. coli, rifampicin, compound at 6 μM
  Sensitization fold: 8-fold at 6 μM.
[3]; E. coli, rifampicin, compound at 12.5 μM
  Sensitization fold: 32-fold at 12.5 μM
[3]; [11]
  MIC: 50 µM
[8]; HEK293 cells (Table 6), read-out: IC50
  IC50: 25 to 50 µM
[4]
  CC50 at 24 h: 25 to 50 µM
[5]; [12]
  MIC: 12.5 µM
[6]
  CC50 at 24 h: 25 to 50 µM
[7]; compound at 3 μM
  Sensitization fold: 8-fold at 3 μM.
[7]; compound at 6 μM
  Sensitization fold: 32-fold at 6 μM
[7]
  MIC: 25 µM
